Inhibition data for twelve compounds are collected here from US9023832B2, “Derivatives of 1-amino-2-cyclopropylethylboronic acid” (Millennium Pharmaceuticals, Inc., priority 2010, dated 2015).

The target in test [1] is T1, human 20S proteasome β1 (Homo sapiens, UniProt P28072).
T1 construct: purchased Boston Biochem
Description: 20S Proteasome Assay, β1 selective substrate (Z-LLE-AMC). It counts as biochemical. As to conditions: typically tested as mannitol esters; for inhibition at 0.41 µM: concentration 0.41 μM; for inhibition at 0.33 µM: concentration 0.33 μM. As to the method:
(§1) β1 Selective substrate: To 1 μL of test compound dissolved in DMSO in a 384-well microtiter plate is added 25 μL of assay buffer at 37° C. containing human PA28 activator (Boston Biochem, 12 nM final) with Z-LLE-AMC ([…]1 selective substrate) (15 μM final), followed by 25 μL of assay buffer at 37° C. containing human 20S proteasome (Boston Biochem, 0.25 nM final). Assay buffer is composed of 20 mM HEPES, 0.5 mM EDTA and 0.01% BSA, pH7.4. The reaction is followed on a BMG Galaxy plate reader (37° C., excitation 380 nm, emission 460 nm, gain 20). Percent inhibition is calculated relative to 0% inhibition (DMSO) and 100% inhibition (10 μM bortezomib) controls. Compound of formula (I) are typically tested in this assay as their mannitol esters (prepared as described above). The mannitol esters are hydrolyzed to the free active boronic acid species.

Test [2] concerns the target T2, human 20S proteasome β5 (Homo sapiens, UniProt P28074).
T2 construct: purchased Boston Biochem
Description: 20S Proteasome Assay, β5 selective substrate (Ac-WLA-AMC). Type of test: biochemical. As to conditions: concentration 0.41 μM; typically tested as mannitol esters. On the procedure: as §1, with “β5” for “β1”, “384-well black” for “384-well”, “Ac-WLA-AMC (β5” for “Z-LLE-AMC ([…]1”

For the compound `O=C(N[C@@H](CC1CC1)B(O)O)[C@H](Cc1ccccc1)NS(=O)(=O)c1cccc(Oc2ccc(C(F)(F)F)cn2)c1` [Compound 7, {(1R)-2-cyclopropyl-1-[((2S)-3-phenyl-2-{[(3-{[5-(trifluoromethyl)pyridin-2-yl]oxy}phenyl)sulfonyl]amino}propanoyl)amino]ethyl}boronic acid], the values for the inhibition at 0.41 µM in test [1] and in test [2] were 81.3% and 93%, respectively.
For `O=C(N[C@@H](CC1CC1)B(O)O)[C@H](Cc1ccccc1)NS(=O)(=O)c1ccc(Oc2ccccn2)cc1` [Compound 1, ((1R)-2-cyclopropyl-1-{[(2S)-3-phenyl-2-({[4-(pyridin-2-yloxy)phenyl]sulfonyl}amino)propanoyl]amino}ethyl)boronic acid] the same measures were 67.2% and 91.8%.
For `O=C(N[C@@H](CC1CC1)B(O)O)[C@H](Cc1ccccc1)NS(=O)(=O)c1ccc(Oc2ccncc2)cc1` [Compound 14, ((1R)-2-cyclopropyl-1-{[(2S)-3-phenyl-2-({[4-(pyridin-4-yloxy)phenyl]sulfonyl}amino)propanoyl]amino}ethyl)boronic acid] the same measures were 75.7% and 93.1%.
Turning to `O=C(N[C@@H](Cc1ccccc1)C(=O)N[C@@H](CC1CC1)B(O)O)c1cc(Cl)ccc1Cl` [Compound 9, [(1R)-2-cyclopropyl-1-({(2S)-2-[(2,5-dichlorobenzoyl)amino]-3-phenylpropanoyl}amino)ethyl]boronic acid], 0.33 µM produced 91.1% inhibition in test [1]. Besides, in test [2], the inhibition (commonly the percentage by which the read-out fell short of the control) at 0.41 µM is 93.3%.
For `O=C(N[C@@H](Cc1ccccc1)C(=O)N[C@@H](CC1CC1)B(O)O)c1cnccn1` [Compound 12, [(1R)-2-cyclopropyl-1-({(2S)-3-phenyl-2-[(pyrazin-2-ylcarbonyl)amino]propanoyl}amino)ethyl]boronic acid] the same measures were 93% and 81.9%.
As to `CN1C(=O)Cc2cc(S(=O)(=O)N[C@@H](Cc3ccccc3)C(=O)N[C@@H](CC3CC3)B(O)O)ccc21` [Compound 13, {(1R)-2-cyclopropyl-1-[((2S)-2-{[(1-methyl-2-oxo-2,3-dihydro-1H-indol-5-yl)sulfonyl]amino}-3-phenylpropanoyl)amino]ethyl}boronic acid], the inhibition at 0.41 µM in test [1] is 66.7%; in test [2] it was 83.7%.
The like results for `O=C(N[C@@H](CC1CC1)B(O)O)[C@H](Cc1ccccc1)NS(=O)(=O)c1ccc(Oc2cccnc2)cc1` [Compound 2, ((1R)-2-cyclopropyl-1-{[(2S)-3-phenyl-2-({[4-(pyridin-3-yloxy)phenyl]sulfonyl}amino)propanoyl]amino}ethyl)boronic acid] were, in that order, 70.7% and 89%.
The like results for `O=C(N[C@@H](CC1CC1)B(O)O)[C@H](Cc1ccccc1)NS(=O)(=O)c1cccc2cnccc12` [Compound 17, [(1R)-2-cyclopropyl-1-({(2S)-2-[(isoquinolin-5-ylsulfonyl)amino]-3-phenylpropanoyl}amino)ethyl]boronic acid] were, in that order, 71.9% and 89.7%.
As to `O=C1COc2cc(S(=O)(=O)N[C@@H](Cc3ccccc3)C(=O)N[C@@H](CC3CC3)B(O)O)c(Cl)cc2N1` [Compound 15, {(1R)-1-[((2S)-2-{[(6-chloro-3-oxo-3,4-dihydro-2H-1,4-benzoxazin-7-yl)sulfonyl]amino}-3-phenylpropanoyl)amino]-2-cyclopropylethyl}boronic acid], the inhibition at 0.41 µM came out at 77.1% in test [1] and 90.3% in test [2].
The like results for `O=C(N[C@@H](CC1CC1)B(O)O)[C@H](Cc1ccccc1)NS(=O)(=O)c1ccc(-c2cnco2)cc1` [Compound 6, ((1R)-2-cyclopropyl-1-{[(2S)-2-({[4-(1,3-oxazol-5-yl)phenyl]sulfonyl}amino)-3-phenylpropanoyl]amino}ethyl)boronic acid] were, in that order, 65.4% and 92.9%.
For `O=C(c1cccc(S(=O)(=O)N[C@@H](Cc2ccccc2)C(=O)N[C@@H](CC2CC2)B(O)O)c1)c1ccccn1` [Compound 16, ((1R)-2-cyclopropyl-1-{[(2S)-3-phenyl-2-({[3-(pyridin-2-ylcarbonyl)phenyl]sulfonyl}amino)propanoyl]amino}ethyl)boronic acid] the same measures were 82.7% and 90.8%.
As to `O=C(N[C@@H](CC1CC1)B(O)O)[C@H](Cc1ccccc1)NS(=O)(=O)c1ccc2ncsc2c1` [Compound 4, [(1R)-1-({(2S)-2-[(1,3-benzothiazol-6-ylsulfonyl)amino]-3-phenylpropanoyl}amino)-2-cyclopropylethyl]boronic acid], the inhibition at 0.41 µM in test [1] was 73.2%; in test [2], 89.8%.
